# According to patent US20110003767A1, “Inhibitors of Acetyl-CoA Carboxylase for Treatment of Neuronal Hypometabolism” (NEUERA PHARMACEUTICALS, INC., priority 2007, published 2011):
# “Also recorded” adds a separate entry of the source. Read-outs that look alike come from different tables or passages of the source.
# Experiments:
# [1] = system: plasma beta-hydroxybutyrate (BHB); assay: Mouse pharmacokinetic (PK) study of AC-0417-9: plasma BHB after oral dosing; assay type: in vivo; conditions: single po dose of 3 g/kg
# Procedure: Purpose: Determine blood levels of ketone bodies after oral dosing of AC-0417-9 (3,3-Dimethylhexanoate, monoglyceride) at different time points in the mouse. Animals: 12 ICR male mice 6 to 7 weeks old were used. Each mouse weighed between 20-30 grams. General Study Design: Animals (housed 3/cage) were acclimated for at least 3 days prior to dosing. Mice were given a single po dose of 3 g/kg. Animals were anesthetized for blood collection at the times 0.5, 1, 2 and 3 hours. Whole blood (˜0.4 mls) was collected via cardiac puncture and collected into sodium heparin (Na Heparin, 1:9 ratio) anticoagulant. Blood was centrifuged for 8 minutes at 13,000 rpm to isolate plasma. The plasma was transferred into pre-labeled, color-coded eppendorf tubes and frozen at −70° C. […] Plasma levels of beta-hydroxybutyrate (BHB) were determined using a beta-hydroxybutyrate detection kit following manufacturer's directions (StanBio Inc.). Materials: Compound, mouse gavage needles, vehicle, Isoflurane, 1 cc syringes w/26 g needles for blood collection, eppendorf tubes for blood collection, eppendorf tubes for plasma storage, centrifuge, container for sample storage, container for plasma shipment w/dry ice. AC-0417-9 is a clear liquid, 100% active compound by weight. […] Levels of BHB continued to rise during the 3 hour time period with highest levels present at the 3 hour time point.
# [2] = system: plasma beta-hydroxybutyrate (BHB); assay: Mouse pharmacokinetic (PK) study: plasma BHB after oral (po) and intraperitoneal (ip) dosing of TOFA; assay type: in vivo; conditions: for Mean BHB levels: mouse plasma
# Procedure: (§1) Purpose: Determine blood levels of ketone bodies after oral (po) and intraperitoneal (ip) dosing of TOFA at different time points in the mouse. Animals: 75 ICR male mice 6 to 7 weeks old were used. Each mouse weighed between 20-30 grams. General Study Design: Animals (housed 3/cage) were acclimated for at least 3 days prior to dosing. Mice were given either a single po dose (ranging from 0.5 mg/kg, to 5 mg/kg) of compound, or a single ip dose (1 mg/kg). Animals were anesthetized for blood collection at the times 0.5, 1, 2 and 3 hours. Whole blood (˜0.4 mls) was collected via cardiac puncture and collected into sodium heparin (Na Heparin, 1:9 ratio) anticoagulant. Blood was centrifuged for 8 minutes at 13,000 rpm to isolate plasma. The plasma was transferred into pre-labeled, color-coded eppendorf tubes and frozen at −70° C. […] Plasma levels of beta-hydroxybutyrate (BHB) were determined using a beta-hydroxybutyrate detection kit following manufacturer's directions (StanBio Inc.). Materials: Compound, mouse gavage needles, vehicle, Isoflurane, 51 1 cc syringes w/26 g needles for blood collection, 63 eppendorf tubes for blood collection, 63 eppendorf tubes for plasma storage, centrifuge, container for sample storage, container for plasma shipment w/dry ice. AC-8632 (5-(tetradecyloxy)-2-furan-carboxylic acid (TOFA)) is a white crystalline solid, 100% active compound by weight. It is insoluble in aqueous solutions. It is soluble in ethanol (1 mg/ml), DMSO (2 mg/ml) and DMF (10 mg/ml). For maximum solubility in aqueous buffers, AC-8632 should first be dissolved in DMF and then diluted with the aqueous buffer of choice. AC-8632 was solubilized at a concentration of 0.5 mg/ml in a 1:1 solution of DMF::PBS (pH 7.2). For ip treatment, AC-8632 was mixed with DMSO at 2 mg/ml. Results: AC-8632 (TOFA) elevated serum BHB levels at each dose from 0.5 mg-kg to 5 mg/kg. Levels of BHB continued to rise during the 3 hour time period with highest levels present at the 3 hour time point. […] Both po and ip dosing led to elevation of plasma BHB at the 3 hour time point.
# Solubility of AC-8632 = assay type: physicochemical; conditions: for solubility: organic solvent or mixture
# Procedure: as §1
# MPTP lesioned mice = assay: Neuroprotective effects of an ACC inhibitor in MPTP lesioned mice; assay type: in vivo; conditions: MPTP lesioned C57BL6 mice, oral gavage 0.001-5 mg/kg/day
# Procedure: Neuroprotective effects of an ACC inhibitor in MPTP lesioned mice. 1-methyl-4-phenyl-1,2,3,6-tetrahydropyridine (MPTP), blocks complex I (NADH-ubiquinone oxidoreductase) of the mitochondrial electron transport chain, and causes typical symptoms of Parkinson's disease (PD) and the loss of dopaminergic neurons. C57BL6 mice receive daily orally gavage of CP-610431 at doses ranging from 0.001-5 mg/kg/day for seven days before they are lesioned with MPTP. During the 7 days of MPTP treatment animals will continue treatment with compound 1 or with a placebo. At the end of seven days animals are tested for behavioral effects of MPTP treatment and histopathology is performed.
# Three groups of 10 animals are used for this experiment. Group 1 is treated with CP-610431 and lesioned with MPTP, Group 2 is treated with placebo and lesioned with MPTP, and Group 3 is treated with placebo and sham lesioned. After seven days of MPTP treatment behavior and motor skills are tested on all mice. Three tests are used to assess protective behavioral effects: Open Field behavior, Beam Walking test, and Rota Rod test. […]
# Dopamine histopathology is immunohistochemically evaluated comparing tyrosine-hydroxylase-positive (TH+) neurons in the substantia nigra density of TH+ nerve terminals in the striatum on the lesioned side of drug treated and control animals. […]
# [3] = system: Acetyl-CoA carboxylase (ACC), CT (carboxyltranferase) reaction; conditions: cited from earlier work
smiles,measurement,setting,value
"CCCC(C)(C)CC(=O)OCC(O)CO (stereo not shown) [AC-0417-9, 3,3-Dimethylhexanoate, monoglyceride]",serum BHB levels (effect in words),[1],elevation; also recorded: elevate
same,time point of highest BHB levels,[1]; 3 hour time period,3 h
"CCCCCCCCCCCCCCOc1ccc(C(=O)O)o1 [AC-8632, 5-(tetradecyloxy)-2-furan-carboxylic acid]",Mean BHB levels,"[2]; 0.5 mg/kg po, 0 hr",0.1353 mM
same,Mean BHB levels,"[2]; 0.5 mg/kg po, 0.5 hr",0.2087 mM
same,Mean BHB levels,"[2]; 0.5 mg/kg po, 1 hr",0.236 mM
same,Mean BHB levels,"[2]; 0.5 mg/kg po, 2 hr",0.2427 mM
same,Mean BHB levels,"[2]; 0.5 mg/kg po, 3 hr",0.3473 mM
same,Mean BHB levels,"[2]; 1 mg/kg ip, 0 hr",0.1353 mM
same,Mean BHB levels,"[2]; 1 mg/kg ip, 0.5 hr",0.1723 mM
same,Mean BHB levels,"[2]; 1 mg/kg ip, 1 hr",0.177 mM
same,Mean BHB levels,"[2]; 1 mg/kg ip, 2 hr",0.209 mM
same,Mean BHB levels,"[2]; 1 mg/kg ip, 3 hr",0.2163 mM
same,Mean BHB levels,"[2]; 1 mg/kg po, 0 hr",0.1353 mM
same,Mean BHB levels,"[2]; 1 mg/kg po, 0.5 hr",0.2093 mM
same,Mean BHB levels,"[2]; 1 mg/kg po, 1 hr",0.2187 mM
same,Mean BHB levels,"[2]; 1 mg/kg po, 2 hr",0.2827 mM
same,Mean BHB levels,"[2]; 1 mg/kg po, 3 hr",0.2973 mM
same,Mean BHB levels,"[2]; 2 mg/kg po, 0 hr",0.1353 mM
same,Mean BHB levels,"[2]; 2 mg/kg po, 0.5 hr",0.2153 mM
same,Mean BHB levels,"[2]; 2 mg/kg po, 1 hr",0.1497 mM
same,Mean BHB levels,"[2]; 2 mg/kg po, 2 hr",0.2127 mM
same,Mean BHB levels,"[2]; 2 mg/kg po, 3 hr",0.339 mM
same,Mean BHB levels,"[2]; 5 mg/kg po, 0 hr",0.1353 mM
same,Mean BHB levels,"[2]; 5 mg/kg po, 0.5 hr",0.106 mM
same,Mean BHB levels,"[2]; 5 mg/kg po, 1 hr",0.111 mM
same,Mean BHB levels,"[2]; 5 mg/kg po, 2 hr",0.323 mM
same,Mean BHB levels,"[2]; 5 mg/kg po, 3 hr",0.259 mM
same,difference of BHB levels by dose or by route of administration,"[2]; mouse, 0.5-5 mg/kg po, 1 mg/kg ip",did not differ significantly
same,time point of highest BHB levels,"[2]; mouse, 3 hour time period, po and ip",3 h
same,serum BHB levels (effect in words),"[2]; mouse, each dose from 0.5 to 5 mg/kg",elevated
same,solubility,"Solubility of AC-8632; DMF, read-out: solubility in DMF",10000 µg/mL
same,solubility,"Solubility of AC-8632; DMSO, read-out: solubility in DMSO",2000 µg/mL
same,solubility in aqueous solutions,Solubility of AC-8632; aqueous solutions,insoluble
same,solubility,"Solubility of AC-8632; ethanol, read-out: solubility in ethanol",1000 µg/mL
"CCN(CC)C(=O)[C@@H]1CCCN(C2CCN(C(=O)c3c4ccccc4cc4ccccc34)CC2)C1 [CP-610431, R-1′-(anthracene-9-carbonyl)-N,N-diethyl-1,4′-bipiperidine-3-carboxamide]","behavior and motor skills (Open Field, Beam Walking, Rota Rod)",MPTP lesioned mice,Improved
same,number of TH+ neurons,MPTP lesioned mice; substantia nigra,Increased
"O=C(c1c2ccccc2cc2ccccc12)N1CCC(N2CCC[C@@H](C(=O)N3CCOCC3)C2)CC1 [CP-640186, [(3R)-1-[1-(anthracene-9-carbonyl)piperidin-4-yl]piperidin-3-yl]-morpholin-4-ylmethanone]",inhibition of the CT reaction of ACC (in words),[3],"potent, reversible, isozyme-nonselective inhibitors"
